Patent US4045298A, “Antibiotic XK-62-2 and process for production thereof” (priority 1972, dated 1977)
In brackets after ≈: the same amount, converted by molar mass. Like-named read-outs stand apart in the source and are kept apart here.

How the values were obtained:
Solubility = format: physicochemical
[1] = test system: specific enzyme system which inactivates gentamicin C1a or kanamycin by acetylating; format: biochemical, Pseudomonas aeruginosa
[2] = test system: Bacillus subtilis No. 10707; test: Activity (unit/mg) of isolated preparations; paper disk method using an agar plate; format: cell-based
Experimental: After the completion of fermentation, the culture liquor is adjusted to a pH of 2.0 with 12N sulfuric acid and stirred for 30 minutes. Then, about 10 kg of a filter aid, Radiolite No. 600 (product of Showa Kagaku Kogyo Co., Ltd., Japan) is added thereto and the microbial cells are removed by filtration. The filtrate is adjusted to a pH of 8.0 with 6N sodium hydroxide and passed through a column packed with about 50 l of a cation exchange resin, Amberlite IRC-50 (ammonia form). The active substance is adsorbed on the resin and the eluate is discarded. After washing the resin with water, the active substance is eluted out with 1N aqueous ammonia.
Active fractions are combined and concentrated in vacuo to about 5 l. The concentrate is then adjusted to a pH of 8.0 with 6N sulfuric acid and passed through a column packed with 1 l of an anion exchange resin, Dowex 1×2 (OH^- form). The column is washed with about 5 l of water and the effluent and the washings containing active substance are combined and are concentrated to 1/15 by volume. […] The resultant precipitate is removed by filtration and the filtrate is concentrated to 500 ml. The concentrate is adjusted to a pH of 4.5 with 6N sulfuric acid and 2.5 l of methanol is added thereto. […] The precipitate is separated by filtration and washed with methanol.
After the completion of fermentation, the culture liquor is adjusted to a pH of 2.0 with 12N sulfuric acid and stirred for 30 minutes. Then, about 10 kg of Radiolite No. 600 (trade name) is added thereto and the microbial cells are removed by filtration. The filtrate is adjusted to a pH of 8.0 with 6N sodium hydroxide and passed through a column packed with about 50 l of a cation exchange resin, Amberlite IRC-50 (ammonia form). The eluate is discarded. After washing the resin with water, the active substance is eluted out with 1N aqueous ammonia.

[3] = test system: Pseudomonas aeruginosa KY 8512; test: Minimum inhibitory concentration by agar dilution method; format: cell-based; details: KY8512, clinical isolate, Table 7
Description: (§1) Minimum inhibitory concentration
(§2) (γ/ml : by agar dilution method)

[4] = test system: Pseudomonas aeruginosa KY 8514; test: as above; format: cell-based; details: KY8514, clinical isolate, Table 7
Description: as §1, §2

[5] = test system: Pseudomonas aeruginosa KY 4276; test: as above; format: cell-based; details: KY4276, clinical isolate, Table 7
Description: as §1, §2

[6] = test system: Pseudomonas aeruginosa KY 8511; test: as above; format: cell-based; details: KY8511, clinical isolate, Table 7
Description: as §1, §2

[7] = test system: Pseudomonas aeruginosa KY 8520; test: as above; format: cell-based; details: KY8520, clinical isolate, Table 7
Description: as §1, §2

[8] = test system: Pseudomonas aeruginosa KY 8515; test: as above; format: cell-based; details: KY8515, clinical isolate, Table 7
Description: as §1, §2

[9] = test system: Pseudomonas aeruginosa KY 8562; test: as above; format: cell-based; details: KY8562, clinical isolate, Table 7
Description: as §1, §2

[10] = test system: Pseudomonas aeruginosa KY 8516; test: as above; format: cell-based
Description: as §1, §2

[11] = test system: Pseudomonas aeruginosa KY 8510; test: as above; format: cell-based
Description: as §1, §2

[12] = test system: Pseudomonas aeruginosa KY 8510; test: In vivo protection of mice against bacterial infection; details: subcutaneous, inoculum 6.6×10^7 cells/mouse intraperitoneal
Experimental: In addition, the in vivo activity of XK-62-2 against pathogenic bacterial infections in mice is tested. […] They are then treated with various doses of the test antibiotic by subcutaneous injection.

[13] = test system: Streptococcus faecalis ATCC 10541; test: Antibacterial spectra by agar dilution method; format: cell-based; details: Enterococcus faecalis, ATCC10541, Table 5, read-out: Minimum inhibitory concentration
Description: (§3) Antibacterial spectra of XK-62-2 by agar

[14] = test system: Proteus rettgeri Hambrook; test: Minimum inhibitory concentration by agar dilution method; format: cell-based; details: Providencia rettgeri; agar dilution; Table 6; read-out: Minimum inhibitory concentration
Description: (§4) The comparative in vitro activities of these antibiotics against various microorganisms of the genus Proteus are shown in the following Table 6.
as §1, §2

Proteus vulgaris KY 4297 = test: as above; format: cell-based; details: KY4297, Table 6
Description: as §4, §1, §2

Proteus rettgeri Booth = test: as above; format: cell-based; details: Providencia rettgeri; agar dilution; Table 6; read-out: Minimum inhibitory concentration
Description: as §4, §1, §2

[15] = test system: Proteus mirabilis Finland 9; test: as above; format: cell-based; details: FINLAND9, agar dilution, Table 6, read-out: Minimum inhibitory concentration
Description: as §4, §1, §2

Proteus mirabilis No. 39 = test: as above; format: cell-based; details: NO.39, agar dilution, Table 6, read-out: Minimum inhibitory concentration
Description: as §4, §1, §2

Proteus morganii Jenkins = test: as above; format: cell-based; details: Morganella morganii; agar dilution; Table 6; read-out: Minimum inhibitory concentration
Description: as §4, §1, §2

[16] = test system: Proteus mirabilis No. 825; test: as above; format: cell-based; details: NO.825, agar dilution, Table 6, read-out: Minimum inhibitory concentration
Description: as §4, §1, §2

Proteus vulgaris KY 4296 = test: as above; format: cell-based; details: KY4296, Table 6
Description: as §4, §1, §2

[17] = test system: Proteus vulgaris Abbott JJ; test: as above; format: cell-based; details: agar dilution, Table 6, read-out: Minimum inhibitory concentration
Description: as §4, §1, §2

[18] = test system: Proteus vulgaris ATCC 6897; test: as above; format: cell-based; details: ATCC6897, agar dilution
Description: as §3, §4, §1, §2

[19] = vs gentamicin complex or gentamicin C1a

Q: What does the source list for `CNC[C@@H]1CC[C@@H](N)[C@@H](O[C@H]2[C@H](O)[C@@H](O[C@H]3OC[C@](C)(O)[C@H](NC)[C@H]3O)[C@H](N)C[C@@H]2N)O1` [XK-62-2]?
A: Solubility in acetone (Solubility; acetone): soluble; Solubility in chloroform, benzene, ethyl acetate, butyl acetate, ether, butanol, petroleum ether, n-hexane (Solubility; chloroform, benzene, ethyl acetate, butyl acetate, ether, butanol, petroleum ether, n-hexane, etc.): insoluble; Solubility in ethanol (Solubility; ethanol): soluble; Solubility in methanol (Solubility; methanol): soluble; Solubility in ordinary organic solvents (Solubility; ordinary organic solvents): poorly soluble; Solubility in water (Solubility; water): very soluble; Inactivation by acetylation (6'-NH2) [1]: free from acetylation; Activity ([2]; Example 1, purified preparate, free base): 950 unit/mg; Activity ([2]; Example 2, free base, Mm-628 ATCC 21827): 932 unit/mg; Activity ([2]; Example 3, purified preparate, free base): about 950 unit/mg; Activity ([2]; Example 4, free base): 900 unit/mg; Activity ([2]; Example 5, free base): 975 unit/mg; Activity ([2]; Example 6, free base, Micromonospora purpurea ATCC 15835): 925 unit/mg; Activity ([2]; Example 7, free base, Micromonospora echinospora ATCC 15837 NRRL 2985): 898 unit/mg; Activity ([2]; Example 7, free base, Micromonospora echinospora var. ferruginea NRRL 2995): 912 unit/mg; Activity ([2]; Example 7, free base, Micromonospora echinospora var. pallida NRRL 2996): 925 unit/mg; MIC [3]: 0.33 µg/mL (≈ 0.712 µM); MIC [4]: 0.55 µg/mL (≈ 1.19 µM); MIC [5]: 0.33 µg/mL (≈ 0.712 µM); MIC [6]: > 42 µg/mL; MIC [7]: 0.33 µg/mL (≈ 0.712 µM); MIC [8]: > 42 µg/mL; MIC [9]: > 42 µg/mL; Susceptibility of strain ([10]; KY 8516): sensitive; MIC ([10]; Pseudomonas aeruginosa, KY8516, agar dilution, clinical isolate, Table 7): 0.33 µg/mL (≈ 0.712 µM); Antibacterial activity relative to gentamicin complex or gentamicin C1a [10, 19]: much higher antibacterial activity; Susceptibility of strain ([11]; KY 8510): sensitive; MIC ([11]; Pseudomonas aeruginosa, KY8510, agar dilution, clinical isolate, Table 7): 0.33 µg/mL (≈ 0.712 µM); Antibacterial activity relative to gentamicin complex or gentamicin C1a [11, 19]: much higher antibacterial activity; Survival of mice ([12]; 0.125 mg/mouse): 0%; Survival of mice ([12]; 0.25 mg/mouse): 30%; Survival of mice ([12]; 0.5 mg/mouse): 50%; Survival of mice ([12]; 1 mg/mouse): 80%; Survival of mice ([12]; 2 mg/mouse): 100%; MIC [13]: 1.05 µg/mL (≈ 2.27 µM); MIC [14]: 0.021 µg/mL (≈ 0.0453 µM); MIC (Proteus vulgaris KY 4297): 0.021 µg/mL (≈ 0.0453 µM); MIC (Proteus rettgeri Booth): 0.021 µg/mL (≈ 0.0453 µM); MIC [15]: 0.04 µg/mL (≈ 0.0863 µM); MIC (Proteus mirabilis No. 39): 0.021 µg/mL (≈ 0.0453 µM); MIC (Proteus morganii Jenkins): 0.04 µg/mL (≈ 0.0863 µM); MIC [16]: 0.021 µg/mL (≈ 0.0453 µM); MIC (Proteus vulgaris KY 4296): 0.021 µg/mL (≈ 0.0453 µM); MIC [17]: 0.021 µg/mL (≈ 0.0453 µM); MIC ([18]; Table 5, read-out: Minimum inhibitory concentration): 0.03 µg/mL (≈ 0.0647 µM); MIC ([18]; Table 6, read-out: Minimum inhibitory concentration): 0.04 µg/mL (≈ 0.0863 µM)
